Legend:
[1] = target: T1, recombinant guanylate cyclase reporter cell line (Rattus norvegicus, UniProt P19686+P20595); assay: Effect on a recombinant guanylate cyclase reporter cell line; format: cell-based; conditions: MEC = minimum effective concentration; in some cases means of individual determinations
T1 construct: expressed in transfected cells
T1 sequence (P19686 1-690): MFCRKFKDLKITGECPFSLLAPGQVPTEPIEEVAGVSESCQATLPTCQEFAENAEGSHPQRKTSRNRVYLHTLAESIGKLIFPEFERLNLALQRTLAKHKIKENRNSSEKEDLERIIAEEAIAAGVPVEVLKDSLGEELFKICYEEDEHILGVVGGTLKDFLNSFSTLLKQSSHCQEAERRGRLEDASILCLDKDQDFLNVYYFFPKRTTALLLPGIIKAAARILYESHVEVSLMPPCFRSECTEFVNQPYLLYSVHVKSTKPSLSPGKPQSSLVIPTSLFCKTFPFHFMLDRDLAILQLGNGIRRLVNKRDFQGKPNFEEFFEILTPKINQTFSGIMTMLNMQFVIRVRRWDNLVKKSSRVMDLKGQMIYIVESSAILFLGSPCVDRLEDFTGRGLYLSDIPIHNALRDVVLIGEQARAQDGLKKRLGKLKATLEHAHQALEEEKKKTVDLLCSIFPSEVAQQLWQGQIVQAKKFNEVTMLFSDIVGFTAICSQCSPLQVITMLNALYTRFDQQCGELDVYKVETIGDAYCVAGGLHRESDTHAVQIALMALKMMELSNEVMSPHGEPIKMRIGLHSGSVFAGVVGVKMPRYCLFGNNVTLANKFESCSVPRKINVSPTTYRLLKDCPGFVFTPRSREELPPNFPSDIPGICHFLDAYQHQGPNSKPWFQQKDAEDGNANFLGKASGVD
T1 sequence (P20595 1-619): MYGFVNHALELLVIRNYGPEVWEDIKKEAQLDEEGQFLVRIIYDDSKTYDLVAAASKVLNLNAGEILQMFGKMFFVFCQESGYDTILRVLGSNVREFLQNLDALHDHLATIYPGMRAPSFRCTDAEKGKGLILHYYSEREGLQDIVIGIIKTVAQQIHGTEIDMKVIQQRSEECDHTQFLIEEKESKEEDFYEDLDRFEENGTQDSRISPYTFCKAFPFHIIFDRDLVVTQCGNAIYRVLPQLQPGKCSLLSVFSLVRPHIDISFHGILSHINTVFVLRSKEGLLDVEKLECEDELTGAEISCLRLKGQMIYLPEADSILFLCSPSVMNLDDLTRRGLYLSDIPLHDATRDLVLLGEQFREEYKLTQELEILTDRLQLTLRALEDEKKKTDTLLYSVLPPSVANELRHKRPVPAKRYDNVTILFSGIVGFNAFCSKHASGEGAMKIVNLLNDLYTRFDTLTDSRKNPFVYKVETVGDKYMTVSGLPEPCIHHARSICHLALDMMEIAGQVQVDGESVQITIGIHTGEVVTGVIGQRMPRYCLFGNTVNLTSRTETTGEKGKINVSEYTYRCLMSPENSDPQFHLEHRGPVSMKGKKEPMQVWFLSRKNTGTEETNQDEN
Description: B-2. Effect on a Recombinant Guanylate Cyclase Reporter Cell Line
The cellular activity of the compounds of the invention is determined using a recombinant guanylate cyclase reporter cell line, as described in F. Wunder et al., Anal. Biochem. 2005, 339, 104-112. Representative values (MEC=minimum effective concentration) for the compounds of the invention are shown in the table below (Table 1B; in some cases as means of individual determinations): […]

[2] = target: T2, human phosphodiesterase 5 (PDE 5) (Homo sapiens, UniProt O76074); assay: Inhibition of human phosphodiesterase 5 (PDE 5); format: biochemical; conditions: PDE 5 preparation from human platelets; in some cases means of individual determinations
T2 construct: PDE 5 preparations are obtained from human platelets by disruption; from tissue; host or cells: human platelets
Description: B-3. Inhibition of Human Phosphodiesterase 5 (PDE 5)
PDE 5 preparations are obtained from human platelets by disruption (Microfluidizer®, 800 bar, 3 passes), followed by centrifugation (75 000 g, 60 min, 4° C.) and ion exchange chromatography of the supernatant on a Mono Q 10/10 column (linear sodium chloride gradient, elution with a 0.2-0.3M solution of sodium chloride in buffer (20 mM Hepes pH 7.2, 2 mM magnesium chloride). Fractions having PDE 5 activity are combined (PDE 5 preparation) and stored at −80° C.
To determine their in vitro action on human PDE 5, the test substances are dissolved in 100% DMSO and serially diluted. Typically, dilution series (1:3) from 200 μM to 0.091 μM are prepared (resulting final concentrations in the test: 4 μM to 0.0018 μM). In each case 2 μl of the diluted substance solutions are placed into the wells of microtitre plates (Isoplate-96/200W; Perkin Elmer). Subsequently, 50 μl of a dilution of the above-described PDE 5 preparation are added. The dilution of the PDE 5 preparation is chosen such that during the later incubation less than 70% of the substrate are converted (typical dilution: 1:100; dilution buffer: 50 mM tris/hydrochloric acid pH 7.5, 8.3 mM magnesium chloride, 1.7 mM EDTA, 0.2% BSA). The substrate, [8-^3H] cyclic guanosine-3′,5′-monophosphate (1 μCi/μl; Perkin Elmer), is diluted 1:2000 with assay buffer (50 mM tris/hydrochloric acid pH 7.5, 8.3 mM magnesium chloride, 1.7 mM EDTA) to a concentration of 0.0005 μCi/μl. By addition of 50 μl (0.025 μCi) of the diluted substrate, the enzyme reaction is finally started. The test mixtures are incubated at room temperature for 60 min and the reaction is stopped by adding 25 μl of a suspension of 18 mg/ml yttrium scintillation proximity beads in water (phosphodiesterase beads for SPA assays, RPNQ 0150, Perkin Elmer). The microtitre plates are sealed with a film and left to stand at room temperature for 60 min. Subsequently, the plates are analysed for 30 s per well in a Microbeta scintillation counter (Perkin Elmer). IC50 values are determined using the graphic plot of the substance concentration against percentage PDE 5 inhibition.

CCC(=O)C(C)NC(=O)c1nc(-c2nn(Cc3ccccc3F)c3ncccc23)nc2c1C(C)(C)C(=O)N2 (racemic) [Example 66, rac-2-[1-(2-fluorobenzyl)-1H-pyrazolo[3,4-b]pyridin-3-yl]-5,5-dimethyl-6-oxo-N-(3-oxopentan-2-yl)-6,7-dihydro-5H-pyrrolo[2,3-d]pyrimidine-4-carboxamide]
MEC [1]: 0.3 µM
IC50 [2]: 87 nM

CC(CC1CC1)NC(=O)c1nc(-c2nn(Cc3ccccc3F)c3ncccc23)nc2c1C(C)(C)C(=O)N2 (racemic) [Example 68, rac-N-(1-cyclopropylpropan-2-yl)-2-[1-(2-fluorobenzyl)-1H-pyrazolo[3,4-b]pyridin-3-yl]-5,5-dimethyl-6-oxo-6,7-dihydro-5H-pyrrolo[2,3-d]pyrimidine-4-carboxamide]
MEC [1]: 0.1 µM
IC50 [2]: 13 nM

CC1(C)C(=O)Nc2nc(-c3nn(Cc4ccccc4F)c4ncccc34)nc(C(=O)NC3CCOC3=O)c21 (racemic) [Example 78, rac-2-[1-(2-fluorobenzyl)-1H-pyrazolo[3,4-b]pyridin-3-yl]-5,5-dimethyl-6-oxo-N-(2-oxotetrahydrofuran-3-yl)-6,7-dihydro-5H-pyrrolo[2,3-d]pyrimidine-4-carboxamide]
MEC [1]: 0.3 µM
IC50 [2]: 9.3 nM

CC1(C)C(=O)Nc2nc(-c3nn(Cc4ccccc4F)c4ncccc34)nc(C(=O)NCC3CCOC3)c21 (racemic) [Example 99, rac-2-[1-(2-fluorobenzyl)-1H-pyrazolo[3,4-b]pyridin-3-yl]-5,5-dimethyl-6-oxo-N-(tetrahydrofuran-3-ylmethyl)-6,7-dihydro-5H-pyrrolo[2,3-d]pyrimidine-4-carboxamide]
MEC [1]: 0.3 µM
IC50 [2]: 31 nM

CC(NC(=O)c1nc(-c2nn(Cc3ccccc3F)c3ncccc23)nc2c1C(C)(C)C(=O)N2)C1CC1 (racemic) [Example 104, rac-N-(1-cyclopropylethyl)-2-[1-(2-fluorobenzyl)-1H-pyrazolo[3,4-b]pyridin-3-yl]-5,5-dimethyl-6-oxo-6,7-dihydro-5H-pyrrolo[2,3-d]pyrimidine-4-carboxamide]
MEC [1]: 0.1 µM
IC50 [2]: 11 nM

CC(CNC(=O)c1nc(-c2nn(Cc3ccccc3F)c3ncccc23)nc2c1C(C)(C)C(=O)N2)N(C)C (racemic) [Example 105, rac-N-[2-(dimethylamino)propyl]-2-[1-(2-fluorobenzyl)-1H-pyrazolo[3,4-b]pyridin-3-yl]-5,5-dimethyl-6-oxo-6,7-dihydro-5H-pyrrolo[2,3-d]pyrimidine-4-carboxamide]
MEC [1]: 1 µM
IC50 [2]: 620 nM

CCC(C)CNC(=O)c1nc(-c2nn(Cc3ccccc3F)c3ncccc23)nc2c1C(C)(C)C(=O)N2 (racemic) [Example 125, rac-2-[1-(2-fluorobenzyl)-1H-pyrazolo[3,4-b]pyridin-3-yl]-5,5-dimethyl-N-(2-methylbutyl)-6-oxo-6,7-dihydro-5H-pyrrolo[2,3-d]pyrimidine-4-carboxamide]
MEC [1]: 0.3 µM
IC50 [2]: 30 nM

CC1(C)C(=O)Nc2nc(-c3nn(Cc4ccccc4F)c4ncccc34)nc(C(=O)NCC3CCCO3)c21 (racemic) [Example 130, rac-2-[1-(2-fluorobenzyl)-1H-pyrazolo[3,4-b]pyridin-3-yl]-5,5-dimethyl-6-oxo-N-(tetrahydrofuran-2-ylmethyl)-6,7-dihydro-5H-pyrrolo[2,3-d]pyrimidine-4-carboxamide]
MEC [1]: 0.3 µM
IC50 [2]: 28 nM

CC(C)C(C)NC(=O)c1nc(-c2nn(Cc3ccccc3F)c3ncccc23)nc2c1C(C)(C)C(=O)N2 (racemic) [Example 133, rac-2-[1-(2-fluorobenzyl)-1H-pyrazolo[3,4-b]pyridin-3-yl]-5,5-dimethyl-N-(3-methylbutan-2-yl)-6-oxo-6,7-dihydro-5H-pyrrolo[2,3-d]pyrimidine-4-carboxamide]
MEC [1]: 1 µM
IC50 [2]: 30 nM

CC1(C)C(=O)Nc2nc(-c3nn(Cc4ccccc4F)c4ncccc34)nc(C(=O)NCC(N)CC(F)(F)F)c21 (racemic) [Example 136, rac-N-(2-amino-4,4,4-trifluorobutyl)-2-[1-(2-fluorobenzyl)-1H-pyrazolo[3,4-b]pyridin-3-yl]-5,5-dimethyl-6-oxo-6,7-dihydro-5H-pyrrolo[2,3-d]pyrimidine-4-carboxamide]
MEC [1]: 1 µM
IC50 [2]: 42 nM

CC1(C)C(=O)Nc2nc(-c3nn(Cc4ccccc4F)c4ncc(F)cc34)nc(C(=O)N3CCCC3)c21 (single isomer, unassigned) [Example 54]
MEC [1]: 0.03 µM
IC50 [2]: 1200 nM

CC(N)(CNC(=O)c1nc(-c2nn(Cc3ncccc3F)c3ncc(F)cc23)nc2c1C(C)(C)C(=O)N2)CC(F)F (single isomer, unassigned) [Example 56]
MEC [1]: 3 µM
IC50 [2]: 120 nM

Cc1nc2c(cc1F)c(-c1nc3c(c(C(=O)NCC(C)(N)CC(F)F)n1)C(C)(C)C(=O)N3)nn2Cc1cccc(F)c1F (single isomer, unassigned) [Example 57]
MEC [1]: 1 µM
IC50 [2]: 100 nM

Cc1nc2c(cc1F)c(-c1nc3c(c(C(=O)NCC(C)(N)CC(F)F)n1)C(C)(C)C(=O)N3)nn2Cc1cccc(F)c1F (single isomer, unassigned) [Example 58]
MEC [1]: 1 µM
IC50 [2]: 86 nM

CC(N)(CNC(=O)c1nc(-c2nn(Cc3ncccc3F)c3ncc(F)cc23)nc2c1C(C)(C)C(=O)N2)CC(F)F (single isomer, unassigned; enantiomer a) [Example 55, ent-N-(2-Amino-4,4-difluoro-2-methylbutyl)-2-{5-fluoro-1-[(3-fluoropyridin-2-yl)methyl]-1H-pyrazolo[3,4-b]pyridin-3-yl}-5,5-dimethyl-6-oxo-6,7-dihydro-5H-pyrrolo[2,3-d]pyrimidine-4-carboxamide (enantiomer A)]
MEC [1]: 3 µM
IC50 [2]: 190 nM

From US20170233413A1, “SUBSTITUTED ANNULATED PYRIMIDINES AND USE THEREOF” (Bayer Pharma Aktiengesellschaft, priority 2014, published 2017)
